Measurements: patent US9006265B2, “Substituted fused pyrimidinones and dihydropyrimidinones” (Bayer Intellectual Property GmbH, priority 2010, dated 2015)

Key:
[1] = tested on: BRSNS; test: Drought stress test on crop plants in greenhouse, spray application; type: in vivo, Brassica napes; conditions: efficacy = percentage reduction in intensity of damage, mean of three results
Protocol: (§1) Seeds of monocotyledonous and dicotyledonous crop plants were laid out in sandy loam in wood-fiber pots, covered with soil and cultivated in a greenhouse under good growth conditions. The test plants were treated at the early leaf stage (BBCH10-BBCH13). To ensure uniform water supply before commencement of stress, the potted plants were supplied with the maximum amount of water immediately beforehand by dam irrigation and, after application, transferred in plastic inserts in order to prevent subsequent, excessively rapid drying. The inventive compounds, formulated in the form of wettable powders (WP), wettable granules (WG), suspension concentrates (SC) or emulsion concentrates (EC), were sprayed onto the green parts of the plants as an aqueous suspension at an equivalent water application rate of 600 l/ha with addition of 0.2% wetting agent (agrotin). Substance application is followed immediately by stress treatment of the plants (cold or drought stress). For cold stress treatment, the plants were kept under the following controlled conditions: • “day”: 12 hours with illumination at 8° C. • “night”: 12 hours without illumination at 1° C.
(§2) Drought stress was induced by gradual drying out under the following conditions: • “day”: 14 hours with illumination at 26° C. • “night”: 10 hours without illumination at 18° C.
(§3) The duration of the respective stress phases was guided mainly by the state of the untreated (=treated with blank formulation without test compound), stressed control plants and thus varied from crop to crop. It was ended (by re-irrigating or transfer to a greenhouse with good growth conditions) as soon as irreversible damage was observed on the untreated, stressed control plants. In the case of dicotyledonous crops, for example oilseed rape and soybeans, the duration of the drought stress phase varied between 3 and 5 days, in the case of monocotyledonous crops, for example wheat, barley or corn, between 6 and 10 days. The duration of the cold stress phase varied between 12 and 14 days.
(§4) The end of the stress phase was followed by an approx. 5-7-day recovery phase, during which the plants were once again kept under good growth conditions in a greenhouse. In order to rule out any influence of the effects observed by any fungicidal action of the test compounds, it was additionally ensured that the tests proceeded without fungal infection and without infection pressure.
(§5) After the recovery phase had ended, the intensities of damage were rated in visual comparison to untreated, unstressed controls of the same age (in the case of drought stress) or the same growth stage (in the case of cold stress). The intensity of damage was first assessed as a percentage (100%=plants have died, 0%=like control plants). These values were then used to calculate the efficacy of the test compounds (=percentage reduction in the intensity of damage as a result of substance application) by the following formula:
(§6) [formula] EF: efficacy (%) DVus: damage value of the untreated, stressed control DVts: damage value of the plants treated with test compound
(§7) The tables A-1 and B-1 to B-4 below list mean values in each case from three results of the same test.
(§8) Efficacies of selected compounds of the formula (I) under drought stress using the examples of HORVS, BRSNS, ZEAMX und TRZAS: […]

[2] = tested on: ZEAMX; test: as above; type: in vivo, Zea mays; conditions: efficacy = percentage reduction in intensity of damage, mean of three results
Protocol: as §1, §2, §3, §4, §5, §6, §7, §8

[3] = tested on: ZEAMX; test: Cold stress test on crop plants in greenhouse, spray application; type: in vivo, Zea mays; conditions: efficacy = percentage reduction in intensity of damage, mean of three results
Protocol: Seeds of monocotyledonous and dicotyledonous crop plants were laid out in sandy loam in wood-fiber pots, covered with soil and cultivated in a greenhouse under good growth conditions. The test plants were treated at the early leaf stage (BBCH10-BBCH13). To ensure uniform water supply before commencement of stress, the potted plants were supplied with the maximum amount of water immediately beforehand by dam irrigation and, after application, transferred in plastic inserts in order to prevent subsequent, excessively rapid drying. The inventive compounds, formulated in the form of wettable powders (WP), wettable granules (WG), suspension concentrates (SC) or emulsion concentrates (EC), were sprayed onto the green parts of the plants as an aqueous suspension at an equivalent water application rate of 600 l/ha with addition of 0.2% wetting agent (agrotin). Substance application is followed immediately by stress treatment of the plants (cold or drought stress). For cold stress treatment, the plants were kept under the following controlled conditions: • “day”: 12 hours with illumination at 8° C. • “night”: 12 hours without illumination at 1° C. The duration of the respective stress phases was guided mainly by the state of the untreated (=treated with blank formulation without test compound), stressed control plants and thus varied from crop to crop. It was ended (by re-irrigating or transfer to a greenhouse with good growth conditions) as soon as irreversible damage was observed on the untreated, stressed control plants. In the case of dicotyledonous crops, for example oilseed rape and soybeans, the duration of the drought stress phase varied between 3 and 5 days, in the case of monocotyledonous crops, for example wheat, barley or corn, between 6 and 10 days. The duration of the cold stress phase varied between 12 and 14 days. The end of the stress phase was followed by an approx. 5-7-day recovery phase, during which the plants were once again kept under good growth conditions in a greenhouse. In order to rule out any influence of the effects observed by any fungicidal action of the test compounds, it was additionally ensured that the tests proceeded without fungal infection and without infection pressure. After the recovery phase had ended, the intensities of damage were rated in visual comparison to untreated, unstressed controls of the same age (in the case of drought stress) or the same growth stage (in the case of cold stress). The intensity of damage was first assessed as a percentage (100%=plants have died, 0%=like control plants). These values were then used to calculate the efficacy of the test compounds (=percentage reduction in the intensity of damage as a result of substance application) by the following formula: [formula] EF: efficacy (%) DVus: damage value of the untreated, stressed control DVts: damage value of the plants treated with test compound The tables A-1 and B-1 to B-4 below list mean values in each case from three results of the same test. Efficacies of selected compounds of the formula (I) under cold stress using the example of ZEAMX: […]

[4] = tested on: TRZAS; test: Drought stress test on crop plants in greenhouse, spray application; type: in vivo, Triticum aestivum; conditions: efficacy = percentage reduction in intensity of damage, mean of three results
Protocol: as §1, §2, §3, §4, §5, §6, §7, §8

Question: Which “EF (BRSNS)” value ([1]; dosage 250 g/ha) does the source give for `O=c1[nH]c2c(-c3ccc(Cl)cc3)c(C(F)(F)F)nn2c2ccccc12` [I.3-17, 3-(4-Chlorophenyl)-2-(trifluoromethyl)pyrazolo[1,5-a]quinazolin-5(4H)-one] here?
Answer: >5%

Question: What about the “EF (ZEAMX)” value ([2]; dosage 250 g/ha) of the same compound?
Answer: >5%

Question: What does the source list for `NC(=O)c1cnn2c1[nH]c(=O)c1ccccc12` [I.3-31]?
Answer: EF (ZEAMX) ([3]; dosage 250 g/ha): >5%; EF (BRSNS) ([1]; dosage 25 g/ha): >5%; EF (ZEAMX) ([2]; dosage 250 g/ha): >5%; EF (TRZAS) ([4]; dosage 25 g/ha): >5%

Question: Which “EF (ZEAMX)” value ([2]; dosage 250 g/ha) does the source give for `CCOC(=O)c1c(C#N)nn2c1[nH]c(=O)c1ccccc12` [I.3-32] here?
Answer: >5%

Question: Which “EF (BRSNS)” value ([1]; dosage 250 g/ha) does the source give for `COc1cccc2c1NC(CCc1ccccc1)NC2=O` (stereo not drawn) [I.4-16] here?
Answer: >5%

Question: For `Cc1cccc2c1NC(c1ccc(C(F)(F)F)cc1)NC2=O` (stereo not drawn) [I.4-21], which “EF (ZEAMX)” value ([2]; dosage 1000 g/ha) is on record?
Answer: >5%

Question: With `O=C1NC(c2ccoc2)Nc2ccccc21` (stereo not drawn) [I.4-51] as the compound, how does the “EF (ZEAMX)” value ([3]; dosage 250 g/ha) read?
Answer: >5%

Question: Which “EF (ZEAMX)” value ([3]; dosage 50 g/ha) does the source give for `CN1c2ccccc2C(=O)NC1c1cnn(C)c1` (stereo not drawn) [I.4-63] here?
Answer: >5%

Question: Which melting point does the source give for `O=C1NC(c2ccc(Cl)cc2)Nc2ccccc21` (stereo not drawn) [I.4-71, 2-(4-Chlorophenyl)-2,3-dihydroquinazolin-4(1H)-one] here?
Answer: 190 °C

Question: For `COc1cccc2c1NC(/C=C/c1ccccc1)NC2=O` (stereo not drawn) [I.4-75, 2R,S-8-methoxy-2-[(E)-2-phenylethenyl]-2,3-dihydroquinazolin-4(1H)-one], which “EF (BRSNS)” value ([1]; dosage 250 g/ha) is on record?
Answer: >5%

Question: And the “EF (TRZAS)” value ([4]; dosage 250 g/ha)?
Answer: >5%

Question: With `Cc1cccc2c1NC(c1ccoc1)NC2=O` (stereo not drawn) [I.4-84] as the compound, how does the “EF (ZEAMX)” value ([2]; dosage 250 g/ha) read?
Answer: >5%

Question: With `CN1c2ccccc2C(=O)NC1c1ccoc1` (stereo not drawn) [I.4-85] as the compound, how does the “EF (ZEAMX)” value ([2]; dosage 250 g/ha) read?
Answer: >5%

Question: With `COc1cc(/C=C/C2NC(=O)c3ccccc3N2C)cc(OC)c1O` (stereo not drawn) [I.4-90] as the compound, how does the “EF (BRSNS)” value ([1]; dosage 250 g/ha) read?
Answer: >5%

Question: With `CCn1ccc(C2NC(=O)c3cccc(OC)c3N2)n1` (stereo not drawn) [I.4-97] as the compound, how does the “EF (ZEAMX)” value ([2]; dosage 250 g/ha) read?
Answer: >5%

Question: What about the “EF (TRZAS)” value ([4]; dosage 250 g/ha) of the same compound?
Answer: >5%

Question: With `CCn1nccc1C1NC(=O)c2cccc(C)c2N1` (stereo not drawn) [I.4-115] as the compound, how does the “EF (BRSNS)” value ([1]; dosage 250 g/ha) read?
Answer: >5%

Question: What about the “EF (TRZAS)” value ([4]; dosage 250 g/ha) of the same compound?
Answer: >5%

Question: For `O=C1NC(c2ccc(Cl)cc2)Nc2cccc(F)c21` (stereo not drawn) [I.4-165], which “EF (ZEAMX)” value ([2]; dosage 250 g/ha) is on record?
Answer: >5%

Question: Which “EF (ZEAMX)” value ([2]; dosage 250 g/ha) does the source give for `O=C1NC(c2ccc(F)cc2F)Nc2c(Cl)cccc21` (stereo not drawn) [I.4-175] here?
Answer: >5%

Question: Which “EF (ZEAMX)” value ([2]; dosage 250 g/ha) does the source give for `O=C1NC(c2ccsc2)Nc2cccc(F)c21` (stereo not drawn) [I.4-177] here?
Answer: >5%

Question: Which “EF (ZEAMX)” value ([2]; dosage 250 g/ha) does the source give for `Cc1cccc2c1C(=O)NC(c1ccsc1)N2` (stereo not drawn) [I.4-180] here?
Answer: >5%

Question: With `O=C1NC(c2ccsc2)Nc2c(Cl)cccc21` (stereo not drawn) [I.4-181] as the compound, how does the “EF (BRSNS)” value ([1]; dosage 250 g/ha) read?
Answer: >5%

Question: What about the “EF (ZEAMX)” value ([2]; dosage 250 g/ha) of the same compound?
Answer: >5%

Question: With `O=C1NC(CCc2ccccc2)Nc2cccc(F)c21` (stereo not drawn) [I.4-184] as the compound, how does the “EF (ZEAMX)” value ([3]; dosage 250 g/ha) read?
Answer: >5%

Question: With `Cc1ccc(C2NC(=O)c3c(C)cccc3N2)cc1` (stereo not drawn) [I.4-193] as the compound, how does the “EF (TRZAS)” value ([4]; dosage 250 g/ha) read?
Answer: >5%

Question: For `O=C1NC(c2ccc(Br)cc2F)Nc2cccc(F)c21` (stereo not drawn) [I.4-227], which “EF (TRZAS)” value ([4]; dosage 250 g/ha) is on record?
Answer: >5%

Question: Which “EF (BRSNS)” value ([1]; dosage 250 g/ha) does the source give for `O=C1NC(c2ccoc2)Nc2cccc(Cl)c21` (stereo not drawn) [I.4-232] here?
Answer: >5%

Question: And the “EF (TRZAS)” value ([4]; dosage 250 g/ha)?
Answer: >5%

Question: With `Cc1ccc(C2NC(=O)c3cccc(Cl)c3N2)c(Cl)c1` (stereo not drawn) [I.4-295] as the compound, how does the “EF (ZEAMX)” value ([2]; dosage 250 g/ha) read?
Answer: >5%

Question: With `CCN(CC)CCN1C(=O)c2cccc(OC)c2NC1c1ccc(C(F)(F)F)cc1Cl` (stereo not drawn) [I.4-324] as the compound, how does the “EF (ZEAMX)” value ([2]; dosage 250 g/ha) read?
Answer: >5%

Question: For `CCN(CC)CCN1C(=O)c2cccc(OC)c2NC1c1ccnn1C` (stereo not drawn) [I.4-330], which “EF (ZEAMX)” value ([2]; dosage 250 g/ha) is on record?
Answer: >5%

Question: And the “EF (TRZAS)” value ([4]; dosage 250 g/ha)?
Answer: >5%
